Laboratory results published in PMC9671208, “Synthesis, biological evaluation, and molecular docking of novel hydroxyzine derivatives as potential AR antagonists” (Frontiers in Chemistry, 2022).

Key:
[1] = test system: LNCaP; assay: CCK-8 cytotoxicity assay, LNCaP; type: cell-based, human; settings: for IC50: Homo sapiens, LNCaP cells, CCK-8, 24 h, mean ± SD of three experiments
Method: (§1) Cell proliferation was measured using the CCK-8 assay kit ([Kaspers et al., 1997]; [Kaspers et al., 1998]; [Ding et al., 2010]). Cells were seeded into 96-well plates (>5*10^4) with approximately 100 ul of cell suspension per well and incubated in 37°C incubator for 4 h. Various concentrations of the compounds were then added and incubated for a further 24 h in a 37°C incubator. Finally, 10 ul CCK8 was added and incubated for 0.5–4 h, absorbance at 450 nm was determined. ([Guo et al., 2021]; [He et al., 2022a]; [Hu et al., 2022]).
(§2) The in vitro cytotoxic activity results of the synthesized derivatives 3–17 against human prostate cancer lines (PC-3, LNCaP, and DU145) and the human prostate epithelial cell line (WPMY-1) were evaluated, as shown in Table 1.

[2] = target: T1, AR (Homo sapiens, UniProt P10275); assay: AR reporter gene (luciferase) assay; type: cell-based; settings: read-out: AR antagonistic activity % (10 μM)
T1 sequence (P10275 1-920): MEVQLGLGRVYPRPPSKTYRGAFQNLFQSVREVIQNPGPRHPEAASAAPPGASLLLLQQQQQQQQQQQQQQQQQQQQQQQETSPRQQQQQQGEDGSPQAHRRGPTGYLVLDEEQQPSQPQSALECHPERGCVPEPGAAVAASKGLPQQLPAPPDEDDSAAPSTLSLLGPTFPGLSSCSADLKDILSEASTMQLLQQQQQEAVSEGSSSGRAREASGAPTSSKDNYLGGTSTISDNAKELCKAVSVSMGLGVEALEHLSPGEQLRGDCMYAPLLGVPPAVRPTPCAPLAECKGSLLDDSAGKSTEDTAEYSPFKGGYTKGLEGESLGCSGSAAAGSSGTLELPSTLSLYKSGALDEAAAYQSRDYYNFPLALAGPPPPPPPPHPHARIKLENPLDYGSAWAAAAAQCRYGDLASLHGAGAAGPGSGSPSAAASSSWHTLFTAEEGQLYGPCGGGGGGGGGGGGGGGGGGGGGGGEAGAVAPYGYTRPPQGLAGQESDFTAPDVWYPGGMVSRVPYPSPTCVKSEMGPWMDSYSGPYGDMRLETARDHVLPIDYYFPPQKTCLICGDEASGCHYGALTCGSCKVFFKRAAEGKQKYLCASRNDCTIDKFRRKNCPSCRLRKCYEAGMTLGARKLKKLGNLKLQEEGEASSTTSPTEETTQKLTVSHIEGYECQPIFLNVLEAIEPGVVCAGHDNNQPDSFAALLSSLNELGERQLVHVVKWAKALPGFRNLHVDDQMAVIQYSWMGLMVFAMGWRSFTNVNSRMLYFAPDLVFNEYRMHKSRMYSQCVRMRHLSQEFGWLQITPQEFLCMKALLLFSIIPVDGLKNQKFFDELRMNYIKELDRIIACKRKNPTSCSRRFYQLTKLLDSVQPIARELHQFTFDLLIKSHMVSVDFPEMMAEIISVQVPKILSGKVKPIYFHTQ
Method: Firefly and Renilla luciferase activities, were determined using the Dual-Glo™luciferase assay kit. RLUs were determined using the GloMax®96-Microplate Luminometer.

[3] = test system: WPMY-1; assay: CCK-8 cytotoxicity assay, WPMY-1 normal prostate epithelial cells; type: cell-based; settings: WPMY-1 normal human prostate epithelial cells, CCK-8, 24 h; mean ± SD of three experiments
Method: as §1, §2

[4] = test system: PC-3; assay: CCK-8 cytotoxicity assay, PC-3; type: cell-based, human; settings: for IC50: Homo sapiens, PC-3 cells, CCK-8, 24 h, mean ± SD of three experiments
Method: as §1, §2

[5] = test system: DU145; assay: CCK-8 cytotoxicity assay, DU145; type: cell-based, human; settings: for IC50: Homo sapiens, DU-145, DU145 cells, CCK-8, 24 h, mean ± SD of three experiments
Method: as §1, §2

Row | SMILES | IC50 [1] [µM] | inhibition at 10 µM [2] [%] | IC50 [3] [µM] | IC50 [4] [µM] | IC50 [5] [µM] | melting point [°C] | cytotoxic activity against LNCaP cells (in words) [1] | cytotoxic activity against PC-3 cells (in words) [4] | cytotoxic activity against DU145 cells (in words) [5]
1 | OCCc1ccc(CN2CCN(C(c3ccccc3)c3ccccc3)CC2)cc1 [Compound 3, 2-(4-((4-benzhydrylpiperazin-1-yl)methyl)phenyl)ethan-1-ol] | 6.14 ± 0.58 | 40.17 ± 0.24 | > 50 | 8.13 ± 0.12 | 11.1 ± 0.76 | 122 to 123 |  |  | 
2 | Cc1ccc(C(c2ccccc2)N2CCN(Cc3ccc(CCO)cc3)CC2)cc1 (stereo not drawn) [Compound 4, 2-(4-((4-(phenyl(p-tolyl)methyl)piperazin-1-yl)methyl)phenyl)ethan-1-ol] | 4.67 ± 1.02 | 32.5 ± 0.65 | > 50 | 2.56 ± 0.32 | 6.14 ± 0.24 | 125 to 126 | strong cytotoxic activities | strong cytotoxic activities | strong cytotoxic activities
3 | Cc1ccc(C(c2ccc(C)cc2)N2CCN(Cc3ccc(CCO)cc3)CC2)cc1 [Compound 5, 2-(4-((4-(di-p-tolylmethyl)piperazin-1-yl)methyl)phenyl)ethan-1-ol] | 3.73 ± 0.58 | 22.7 ± 0.72 | 37.51 ± 0.37 | 12.1 ± 0.29 | 9.82 ± 0.24 | 128 to 129 |  | moderate activity | moderate activity
4 | COc1ccc(C(c2ccccc2)N2CCN(Cc3ccc(CCO)cc3)CC2)cc1 (stereo not drawn) [Compound 6, 2-(4-((4-((4-methoxyphenyl)(phenyl)methyl)piperazin-1-yl)methyl)phenyl)ethan-1-ol] | 6.17 ± 1.02 | 30.75 ± 0.17 | > 50 | 3.15 ± 0.48 | 2.17 ± 0.72 | 116 to 117 | strong cytotoxic activities | strong cytotoxic activities | strong cytotoxic activities
5 | OCCc1ccc(CN2CCN(C(c3ccccc3)c3ccc(F)cc3)CC2)cc1 (stereo not drawn) [Compound 7, 2-(4-((4-((4-fluorophenyl)(phenyl)methyl)piperazin-1-yl)methyl)phenyl)ethan-1-ol] | 5.17 ± 0.63 | 38.7 ± 0.83 | 48.26 ± 0.41 | 1.87 ± 0.22 | 2.17 ± 1.12 | 116 to 117 | strong cytotoxic activities | strong cytotoxic activities | strong cytotoxic activities
6 | OCCc1ccc(CN2CCN(C(c3ccc(F)cc3)c3ccc(F)cc3)CC2)cc1 [Compound 8, 2-(4-((4-(bis(4-fluorophenyl)methyl)piperazin-1-yl)methyl)phenyl)ethanol] | 4.92 ± 0.29 | 25.2 ± 0.71 | 35.53 ± 0.13 | 10.12 ± 0.08 | 12.3 ± 0.16 | 133 to 134 |  |  | 
7 | OCCc1ccc(CN2CCN(C(c3ccccc3)c3ccc(Cl)cc3)CC2)cc1 (stereo not drawn) [Compound 9, 2-(4-((4-((4-chlorophenyl)(phenyl)methyl)piperazin-1-yl)methyl)phenyl)ethanol] | 4.13 ± 0.06 | 28.42 ± 0.25 | > 50 | 1.53 ± 0.16 | 7.63 ± 0.12 | 130 to 131 | strong cytotoxic activities | strong cytotoxic activities | strong cytotoxic activities
8 | OCCc1ccc(CN2CCN(C(c3ccc(Cl)cc3)c3ccc(Cl)cc3)CC2)cc1 [Compound 10, 2-(4-((4-(bis(4-chlorophenyl)methyl)piperazin-1-yl)methyl)phenyl)ethan-1-ol] | 7.14 ± 0.29 | 20.47 ± 0.18 | > 50 | 15.24 ± 0.14 | 10.8 ± 1.14 | 127 to 128 |  |  | 
9 | OCCc1ccc(CN2CCN(Cc3ccccc3)CC2)cc1 [Compound 11, 2-(4-((4-benzylpiperazin-1-yl)methyl)phenyl)ethan-1-ol] | 11.2 ± 0.14 | 65.15 ± 0.57 | > 50 | 20.4 ± 0.48 | 11.3 ± 0.27 | 119 to 120 |  |  | 
10 | CC(c1ccccc1)N1CCN(Cc2ccc(CCO)cc2)CC1 (stereo not drawn) [Compound 12, 2-(4-((4-(1-phenylethyl)piperazin-1-yl)methyl)phenyl)ethan-1-ol] | 7.76 ± 0.19 | 68.62 ± 0.38 | > 50 | 13.7 ± 1.12 | 16.3 ± 0.63 | 114 to 115 |  |  | 
11 | Cc1ccc(CN2CCN(Cc3ccc(CCO)cc3)CC2)cc1 [Compound 13, 2-(4-((4-(4-methylbenzyl)piperazin-1-yl)methyl)phenyl)ethan-1-ol] | 22.1 ± 0.76 | 64.18 ± 0.45 | 47.14 ± 0.42 | 15.4 ± 0.42 | 17.2 ± 1.02 | 112 to 113 |  |  | 
12 | COc1ccc(CN2CCN(Cc3ccc(CCO)cc3)CC2)cc1 [Compound 14, 2-(4-((4-(4-methoxybenzyl)piperazin-1-yl)methyl)phenyl)ethan-1-ol] | 16.2 ± 0.53 | 58.88 ± 0.23 | > 50 | 11.1 ± 0.67 | 24.1 ± 0.47 | 117 to 118 |  |  | 
13 | OCCc1ccc(CN2CCN(Cc3ccc(F)cc3)CC2)cc1 [Compound 15, 2-(4-((4-(4-fluorobenzyl)piperazin-1-yl)methyl)phenyl)ethan-1-ol] | 18.45 ± 0.16 | 64.35 ± 0.17 | > 50 | 10.5 ± 1.14 | 16.2 ± 0.62 | 114 to 115 |  |  | 
14 | CC(C)(C)NC(=O)[C@H]1CC[C@H]2[C@@H]3CC[C@H]4NC(=O)C=C[C@]4(C)[C@H]3CC[C@]12C [Finasteride, reference compound] | 13.5 |  |  | 17.8 | 14.6 |  |  |  | 
15 | COc1ccccc1N1CCN(CC(O)COc2cccc3ccccc23)CC1 (stereo not drawn) [Naftopidil, reference compound] | 22.4 ± 0.61 |  | > 50 | 42.1 ± 0.79 | 34.58 ± 0.31 |  |  |  | 
